In this experiment the target is T1, human MT2 receptor (Homo sapiens, UniProt P49286).
T1 construct: melatonin MT1 and MT2 receptors cDNA were individually subcloned into pcDNA3 and introduced into NIH-3T3 cells using Lipofectamine; expressed in transfected cells
T1 sequence (P49286 1-362): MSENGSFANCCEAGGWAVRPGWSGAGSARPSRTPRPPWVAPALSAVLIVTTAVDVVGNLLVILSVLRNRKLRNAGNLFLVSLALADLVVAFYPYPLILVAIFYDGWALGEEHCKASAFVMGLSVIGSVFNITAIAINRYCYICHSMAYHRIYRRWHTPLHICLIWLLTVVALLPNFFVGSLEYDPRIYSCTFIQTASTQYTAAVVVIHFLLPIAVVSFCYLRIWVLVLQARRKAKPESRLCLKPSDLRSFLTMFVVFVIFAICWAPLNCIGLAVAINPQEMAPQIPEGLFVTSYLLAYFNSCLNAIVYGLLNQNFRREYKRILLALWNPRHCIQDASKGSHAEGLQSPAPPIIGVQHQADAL
Briefly: Melatonin receptor binding assay (MT2), 2-[125I]-iodomelatonin. The following applies: membrane homogenates of NIH-3T3 cells expressing MT2; 2-[125I]-iodomelatonin 0.2 nM; 37° C., 1 hour; read-out: MT2 IC50. Here is the method:
Melatonin receptor binding assay.
Membrane homogenates: melatonin MT1 and MT2 receptors cDNA were individually subcloned into pcDNA3 and introduced into NIH-3T3 cells using Lipofectamine. […] For preparing membrane homogenates, pellets are thawed on ice, and re-suspended in TME buffer in the presence of 10 μg/ml aprotinin and leupeptin, and 100 μM phenylmethylsulfonylfluoride. The cells were then homogenized using a dounce homogenizer, and centrifuged. The resulting pellet was re-suspended with dounce homogenizer in TME (supplemented with the above protease inhibitors) and frozen. On the day of assay, a small aliquot was thawed on ice and re-suspended in the ice cold TME (1:50-1:100 v/v) and held on ice until assayed. Incubation is at 37° C. for 1 hour. Reaction is terminated by filtration. Filters were washed 3 times.

Broadly, the IC50 is the midpoint of a concentration-inhibition curve. For the compound `CCCC(=O)N1CCc2cc3c(cc2C1CCc1ccc(Cl)cc1)OCO3` (centres unmarked) [Example 144], the half-maximal inhibitory concentration (IC50) was below 100 nM.

As for `COc1cc2c(cc1OC)C(CCc1ccccc1)N(C(=O)C(C)C)CC2` (centres unmarked) [Example 59], the IC50 was in the range of 100 to 1000 nM.

Take `O=C(c1ccccc1)N1CCc2cc3c(cc2C1CCc1ccc(F)cc1)OCO3` (centres unmarked) [Example 93]: the half-inhibitory concentration (IC50) lay in the range of 100 to 1000 nM. The same measure for `COc1cc2c(cc1Br)CCN(C(=O)c1ccco1)C2CC(c1ccccc1)c1ccccc1` (centres unmarked) [Example 30]: 100 to 1000 nM; for `COc1cc2c(cc1Br)CCN(C(=O)COc1ccccc1)C2CC(c1ccccc1)c1ccccc1` (centres unmarked) [Example 31]: 100 to 1000 nM; for `CCCC(=O)N1CCc2cc3c(cc2C1CCc1ccc(F)cc1)OCO3` (centres unmarked) [Example 101]: below 100 nM. With `O=C(C1CCCC1)N1CCc2cc3c(cc2C1CCc1ccc(F)cc1)OCO3` (centres unmarked) [Example 102], the IC50 was below 100 nM. In the case of `COc1cc2c(cc1OC)C(CC(c1ccccc1)c1ccccc1)N(C(C)=O)CC2` (centres unmarked) [Example 1, N-acetyl 1-(2,2-diphenyleth-1-yl)-6,7-dimethoxy-1,2,3,4-tetrahydroisoquinoline] it was below 100 nM; in that of `CC(C)(C)CC(=O)N1CCc2cc3c(cc2C1CCc1ccc(Cl)cc1)OCO3` (centres unmarked) [Example 149], 100 to 1000 nM; in that of `COc1cc2c(cc1OC)C(CC(c1ccccc1)c1ccccc1)N(C(N)=O)CC2` (centres unmarked) [Example 8, N-carbamoyl 1-(2,2-diphenyleth-1-yl)-6,7-dimethoxy-1,2,3,4-tetrahydroisoquinoline], below 100 nM.

Consider `CCC(=O)N1CCc2cc(OC)c(OC)cc2C1CC(c1ccccc1)c1ccccc1` (centres unmarked) [Example 3, N-propionyl 1-(2,2-diphenyleth-1-yl)-6,7-dimethoxy-1,2,3,4-tetrahydroisoquinoline], for which the 50% inhibitory concentration (IC50) was below 100 nM. Regarding `COc1ccc2c(c1)C(CC(c1ccccc1)c1ccccc1)N(C(=O)c1ccc(C)cc1)CC2` (centres unmarked) [Example 82], the 50% inhibitory concentration (IC50) was 100 to 1000 nM. Regarding `O=C(CCl)N1CCc2cc3c(cc2C1CCc1ccc(F)cc1)OCO3` (centres unmarked) [Example 98], the IC50 is below 100 nM. In the case of `COc1cc2c(cc1OC)C(CC(c1ccccc1)c1ccccc1)N(C(=O)C1CC1)CC2` (centres unmarked) [Example 5, N-cyclopropylcarbonyl 1-(2,2-diphenyleth-1-yl)-6,7-dimethoxy-1,2,3,4-tetrahydroisoquinoline] it was below 100 nM; in that of `COc1cc2c(cc1OC)C(CC1c3ccccc3-c3ccccc31)N(C(C)=O)CC2` (centres unmarked) [Example 26], 100 to 1000 nM. For the compound `COc1ccc2c(c1)C(CCc1ccc(F)cc1)N(C(=O)COC(C)=O)CC2` (centres unmarked) [Example 118], the IC50 was in the range of 100 to 1000 nM. The same measure for `COc1cc2c(cc1OC)C(CC(c1ccccc1)c1ccccc1)N(C=O)CC2` (centres unmarked) [Example 2, N-formyl 1-(2,2-diphenyleth-1-yl)-6,7-dimethoxy-1,2,3,4-tetrahydroisoquinoline]: below 100 nM; for `COc1cc2c(cc1Br)CCN(C(C)=O)C2CC(c1ccccc1)c1ccccc1` (centres unmarked) [Example 22]: below 100 nM; for `COc1ccc2c(c1)C(CCc1ccc(F)cc1)N(C(C)=O)CC2` (centres unmarked) [Example 90]: below 100 nM. In the case of `COc1ccc2c(c1)C(CCc1ccc(F)cc1)N(C(=O)C1CC1)CC2` (centres unmarked) [Example 109] it was below 100 nM; in that of `COc1cc2c(cc1OC)C(CC(C)c1ccccc1)N(C(C)=O)CC2` (centres unmarked) [Example 18], 100 to 1000 nM; in that of `CC(=O)OCC(=O)N1CCc2cc3c(cc2C1CCc1ccc(F)cc1)OCO3` (centres unmarked) [Example 104], 100 to 1000 nM. In the case of `COC(=O)N1CCc2ccc(OC)cc2C1CCc1ccc(F)cc1` (centres unmarked) [Example 113] it was below 100 nM.

On to `COC(=O)N1CCc2cc3c(cc2C1CCc1ccc(F)cc1)OCC3` (centres unmarked) [Example 129], for which the half-inhibitory concentration (IC50) was 100 to 1000 nM. As to `O=C(c1ccno1)N1CCc2cc3c(cc2C1CCc1ccc(F)cc1)OCO3` (centres unmarked) [Example 103], the IC50 was below 100 nM. The same measure for `COc1cc2c(cc1Br)CCN(C(=O)c1ccc(C(F)(F)F)cc1)C2CC(c1ccccc1)c1ccccc1` (centres unmarked) [Example 40]: 100 to 1000 nM. In the case of `COC(=O)N1CCc2cc(OC)c(OC)cc2C1CC(c1ccccc1)c1ccccc1` (centres unmarked) [Example 10, N-carbomethoxy 1-(2,2-diphenyleth-1-yl)-6,7-dimethoxy-1,2,3,4-tetrahydroisoquinoline] it was below 100 nM; in that of `COc1ccc(C(=O)N2CCc3ccc(OC)cc3C2CC(c2ccccc2)c2ccccc2)cc1` (centres unmarked) [Example 79], 100 to 1000 nM. In the case of `COc1ccc2c(c1)C(CC(c1ccccc1)c1ccccc1)N(C(C)=O)CC2` (centres unmarked) [Example 20] it was below 100 nM; in that of `COc1ccc2c(c1)C(CC(c1ccccc1)c1ccccc1)N(C(=O)c1cccc([N+](=O)[O-])c1)CC2` (centres unmarked) [Example 80], 100 to 1000 nM; in that of `COc1cc2c(cc1OC)C(CCc1ccccc1)N(C(=O)c1cccc([N+](=O)[O-])c1)CC2` (centres unmarked) [Example 65], 100 to 1000 nM. `O=C(C1CC1)N1CCc2cc3c(cc2C1CCc1ccc(Cl)cc1)OCO3` (centres unmarked) [Example 139]: the concentration for half-maximal inhibition (IC50) was below 100 nM. In the case of `CCC(=O)N1CCc2cc3c(cc2C1CCc1ccc(Cl)cc1)OCO3` (centres unmarked) [Example 147] it was below 100 nM; in that of `COCC(=O)N1CCc2ccc(OC)cc2C1CCc1ccc(F)cc1` (centres unmarked) [Example 110], below 100 nM. In the case of `COc1ccc2c(c1)CCN(C(C)=O)C2CC(c1ccccc1)c1ccccc1` (centres unmarked) [Example 17] it was 100 to 1000 nM.

For `COc1cccc(CCC2c3cc(OC)c(OC)cc3CCN2C(C)=O)c1` (centres unmarked) [Example 86], the IC50 was below 100 nM. In the case of `COc1ccc2c(c1)C(CCc1ccc(F)cc1)N(C(=O)CCl)CC2` (centres unmarked) [Example 112] it was below 100 nM; in that of `CC(C)COC(=O)N1CCc2cc3c(cc2C1CCc1ccc(Cl)cc1)OCO3` (centres unmarked) [Example 148], 100 to 1000 nM. In the case of `CCCC(=O)N1CCc2ccc(OC)cc2C1CCc1ccc(F)cc1` (centres unmarked) [Example 115] it was below 100 nM; in that of `COc1ccc2c(c1)C(CC(c1ccccc1)c1ccccc1)N(C(=O)c1cc(C(F)(F)F)cc(C(F)(F)F)c1)CC2` (centres unmarked) [Example 83], 100 to 1000 nM; in that of `O=C(CCl)N1CCc2cc3c(cc2C1CCc1ccc(Cl)cc1)OCO3` (centres unmarked) [Example 142], below 100 nM.

Turning to `COc1cc2c(cc1OC)C(CC(c1ccccc1)c1ccccc1)N(C(=O)c1ccco1)CC2` (centres unmarked) [Example 41], the half-maximal inhibitory concentration (IC50) fell in the range of 100 to 1000 nM. In the case of `COc1cc2c(cc1Br)CCN(C(=O)c1cccc([N+](=O)[O-])c1)C2CC(c1ccccc1)c1ccccc1` (centres unmarked) [Example 37] it was 100 to 1000 nM; in that of `COc1ccc2c(c1)C(CC(c1ccccc1)c1ccccc1)N(C(=O)CC(C)(C)C)CC2` (centres unmarked) [Example 78], 100 to 1000 nM. In the case of `COc1cc2c(cc1Br)CCN(C(=O)CC(C)(C)C)C2CC(c1ccccc1)c1ccccc1` (centres unmarked) [Example 36] it was 100 to 1000 nM; in that of `COc1cc2c(cc1Br)CCN(C(=O)C1CCC1)C2CC(c1ccccc1)c1ccccc1` (centres unmarked) [Example 32], 100 to 1000 nM. The same measure for `O=C(c1ccccc1)N1CCc2cc3c(cc2C1CCc1ccc(Cl)cc1)OCO3` (centres unmarked) [Example 137]: 100 to 1000 nM; for `COc1cc2c(cc1OC)C(CC(c1ccccc1)c1ccccc1)N(C(=O)c1ccccc1OC)CC2` (centres unmarked) [Example 42]: 100 to 1000 nM. With `CCCCCCC(=O)N1CCc2cc(OC)c(OC)cc2C1CCc1ccccc1` (centres unmarked) [Example 61], the IC50 lay within 100 to 1000 nM. The same measure for `COc1cc2c(cc1OC)C(CCc1ccccc1)N(C=O)CC2` (centres unmarked) [Example 15]: below 100 nM.

(Values after US6908931B2, “Tetrahydroisoquinoline derivatives as melatonin MT2 antagonists” (Bristol-Myers Squibb Company, priority 2003, dated 2005).)
